Data: US10266537B2, “3-acetylenyl-pyrazole-pyrimidine derivative, and preparation method therefor and uses thereof” (Si Chuan University, priority 2015, dated 2019)
Where two headings read alike, the source gives them in different places.

Experiments:
c-RAF = c-RAF (Homo sapiens (Human), UniProt P04049); experiment: Kinase inhibition assay (KinaseProfiler, 33P-ATP); format: biochemical; conditions: c-RAF(h); compound at 10 μM; read-out: The percentage of the remaining active protein
Yes = Yes (Homo sapiens (Human), UniProt P07947); experiment: Kinase inhibition assay (KinaseProfiler, 33P-ATP); format: biochemical
Fyn = Fyn (Homo sapiens (Human), UniProt P06241); experiment: Kinase inhibition assay (KinaseProfiler, 33P-ATP); format: biochemical
KDR = KDR (Homo sapiens (Human), UniProt P35968); experiment: Kinase inhibition assay (KinaseProfiler, 33P-ATP); format: biochemical
EphB2 = EphB2 (Homo sapiens (Human), UniProt P29323); experiment: Kinase inhibition assay (KinaseProfiler, 33P-ATP); format: biochemical; conditions: EphB2(h); compound at 10 μM; read-out: The percentage of the remaining active protein
ErbB2 = ErbB2 (Homo sapiens (Human), UniProt P04626); experiment: Kinase inhibition assay (KinaseProfiler, 33P-ATP); format: biochemical; conditions: ErbB2(h); compound at 10 μM; read-out: The percentage of the remaining active protein
DDR1 = DDR1 (Homo sapiens (Human), UniProt Q08345); experiment: Kinase inhibition assay (KinaseProfiler, 33P-ATP); format: biochemical; conditions: DDR1; ATP at Km
DDR2 = DDR2 (Homo sapiens (Human), UniProt Q16832); experiment: Kinase inhibition assay (KinaseProfiler, 33P-ATP); format: biochemical; conditions: DDR2; ATP at Km
IKKα = IKKα (Homo sapiens (Human), UniProt O15111); experiment: Kinase inhibition assay (KinaseProfiler, 33P-ATP); format: biochemical
EGFR = EGFR (Homo sapiens (Human), UniProt P00533); experiment: Kinase inhibition assay (KinaseProfiler, 33P-ATP); format: biochemical
Tie2 = Tie2 (Homo sapiens (Human), UniProt Q02763); experiment: Kinase inhibition assay (KinaseProfiler, 33P-ATP); format: biochemical; conditions: Tie2 (h); compound at 10 μM; read-out: The percentage of the remaining active protein
CHK1(h) = CHK1(h) (Homo sapiens (Human), UniProt O14757); experiment: Kinase inhibition assay (KinaseProfiler, 33P-ATP); format: biochemical; conditions: compound at 10 μM, read-out: The percentage of the remaining active protein
Fer(h) = Fer(h) (Homo sapiens (Human), UniProt P16591); experiment: Kinase inhibition assay (KinaseProfiler, 33P-ATP); format: biochemical; conditions: compound at 10 μM, read-out: The percentage of the remaining active protein
GSK3β(h) = GSK3β(h) (Homo sapiens (Human), UniProt P49841); experiment: Kinase inhibition assay (KinaseProfiler, 33P-ATP); format: biochemical; conditions: compound at 10 μM, read-out: The percentage of the remaining active protein
Itk(h) = Itk(h) (Homo sapiens (Human), UniProt Q08881); experiment: Kinase inhibition assay (KinaseProfiler, 33P-ATP); format: biochemical; conditions: compound at 10 μM, read-out: The percentage of the remaining active protein
JNK1α1(h) = JNK1α1(h) (Homo sapiens (Human), UniProt P45983); experiment: Kinase inhibition assay (KinaseProfiler, 33P-ATP); format: biochemical; conditions: compound at 10 μM, read-out: The percentage of the remaining active protein
Met(h) = Met(h) (Homo sapiens (Human), UniProt P08581); experiment: Kinase inhibition assay (KinaseProfiler, 33P-ATP); format: biochemical; conditions: compound at 10 μM, read-out: The percentage of the remaining active protein
PAK1(h) = PAK1(h) (Homo sapiens (Human), UniProt Q13153); experiment: Kinase inhibition assay (KinaseProfiler, 33P-ATP); format: biochemical; conditions: compound at 10 μM, read-out: The percentage of the remaining active protein
Pim-1(h) = Pim-1(h) (Homo sapiens (Human), UniProt P11309); experiment: Kinase inhibition assay (KinaseProfiler, 33P-ATP); format: biochemical; conditions: compound at 10 μM, read-out: The percentage of the remaining active protein
PKBα(h) = PKBα(h) (Homo sapiens (Human), UniProt P31749); experiment: Kinase inhibition assay (KinaseProfiler, 33P-ATP); format: biochemical; conditions: compound at 10 μM, read-out: The percentage of the remaining active protein
PKBβ(h) = PKBβ(h) (Homo sapiens (Human), UniProt P31751); experiment: Kinase inhibition assay (KinaseProfiler, 33P-ATP); format: biochemical; conditions: compound at 10 μM, read-out: The percentage of the remaining active protein
PKCα(h) = PKCα(h) (Homo sapiens (Human), UniProt P17252); experiment: Kinase inhibition assay (KinaseProfiler, 33P-ATP); format: biochemical; conditions: compound at 10 μM, read-out: The percentage of the remaining active protein
RIPK2(h) = RIPK2(h) (Homo sapiens (Human), UniProt O43353); experiment: Kinase inhibition assay (KinaseProfiler, 33P-ATP); format: biochemical; conditions: compound at 10 μM, read-out: The percentage of the remaining active protein
TBK1(h) = TBK1(h) (Homo sapiens (Human), UniProt Q9UHD2); experiment: Kinase inhibition assay (KinaseProfiler, 33P-ATP); format: biochemical; conditions: compound at 10 μM, read-out: The percentage of the remaining active protein
Tec(h) activated = Tec(h) activated (Homo sapiens (Human), UniProt P42680); experiment: Kinase inhibition assay (KinaseProfiler, 33P-ATP); format: biochemical; conditions: compound at 10 μM, read-out: The percentage of the remaining active protein
A549 = experiment: Cell proliferation inhibition assay (MTT); format: cell-based; conditions: Homo sapiens, A549, 72 h, read-out: Proliferation inhibitory activity IC50
Procedure: (§1) The cells were seeded in 96-well plates with 200 μL of cell suspension per well and incubated overnight in a cell culture medium with a cell concentration of 1 2×10^4 cells/mL. The next day, the supernatant was discarded (the suspension cell was centrifuged before it) and the cells were treated with gradient concentrations of the test compound, respectively. […] After 72 hours, add 20 μL of MTT reagent at a concentration of 5 mg/mL per well. After incubation for 2-4 h, the supernatant was discarded and 150 μL of DMSO was added to each well. […] Relative cell proliferation inhibition rate=([MUT]-[MUT])×100%/[MUT]. The experiment was repeated at least 3 times. Experimental data were expressed as mean, data statistics using t test, P<0.05 for the difference was statistically significant.

MDA-MB-231 = experiment: Cell proliferation inhibition assay (MTT); format: cell-based, human
Procedure: The remaining cell lines were cultured in DMEM complete medium containing 10% fetal bovine serum (MV4-11 cells 20%), 100 U/ml penicillin, 100 μg/mL streptomycin at 5% CO2, and 37° C.
The cells were seeded in 96-well plates with 200 μL of cell suspension per well and incubated overnight in a cell culture medium with a cell concentration of 1˜2×10^4 cells/mL. The next day, the supernatant was discarded (the suspension cell was centrifuged before it) and the cells were treated with gradient concentrations of the test compound, respectively. At the same time, the drug-free negative control group and the equal volume of solvent control group, DMSO concentration of 0.1%, each dose group set up three wells, 37° C., 5% CO2 conditions. After 72 hours, add 20 μL of MTT reagent at a concentration of 5 mg/mL per well. After incubation for 2-4 h, the supernatant was discarded and 150 μL of DMSO was added to each well. […] Determine the absorbance (A) value (λ=570 nm, A value is proportional to the number of living cells), whichever is the average. […] The experiment was repeated at least 3 times. Experimental data were expressed as mean, data statistics using t test, P<0.05 for the difference was statistically significant. The inhibitory effects of the following compounds on cell proliferation were expressed as IC50 or inhibition rates.

BT474 = experiment: Cell proliferation inhibition assay (MTT); format: cell-based; conditions: Homo sapiens, BT-474, 72 h, read-out: Proliferation inhibitory activity IC50
Procedure: as §1

HT29 = experiment: Cell proliferation inhibition assay (MTT); format: cell-based; conditions: Homo sapiens, HT-29, 72 h, read-out: Proliferation inhibitory activity IC50
Procedure: as §1

A375 = experiment: Cell proliferation inhibition assay (MTT); format: cell-based; conditions: Homo sapiens, A-375, 72 h, read-out: Proliferation inhibitory activity IC50
Procedure: as §1

c-Src(1-530) = c-Src(1-530) (Homo sapiens (Human), UniProt P12931); experiment: Kinase inhibition assay (KinaseProfiler, 33P-ATP); conditions: c-Src(1-530); ATP at Km
EphA2 = EphA2 (Homo sapiens (Human), UniProt P29317); experiment: Kinase inhibition assay (KinaseProfiler, 33P-ATP); conditions: EphA2; ATP at Km

Sequence of KDR (P35968 20-1356): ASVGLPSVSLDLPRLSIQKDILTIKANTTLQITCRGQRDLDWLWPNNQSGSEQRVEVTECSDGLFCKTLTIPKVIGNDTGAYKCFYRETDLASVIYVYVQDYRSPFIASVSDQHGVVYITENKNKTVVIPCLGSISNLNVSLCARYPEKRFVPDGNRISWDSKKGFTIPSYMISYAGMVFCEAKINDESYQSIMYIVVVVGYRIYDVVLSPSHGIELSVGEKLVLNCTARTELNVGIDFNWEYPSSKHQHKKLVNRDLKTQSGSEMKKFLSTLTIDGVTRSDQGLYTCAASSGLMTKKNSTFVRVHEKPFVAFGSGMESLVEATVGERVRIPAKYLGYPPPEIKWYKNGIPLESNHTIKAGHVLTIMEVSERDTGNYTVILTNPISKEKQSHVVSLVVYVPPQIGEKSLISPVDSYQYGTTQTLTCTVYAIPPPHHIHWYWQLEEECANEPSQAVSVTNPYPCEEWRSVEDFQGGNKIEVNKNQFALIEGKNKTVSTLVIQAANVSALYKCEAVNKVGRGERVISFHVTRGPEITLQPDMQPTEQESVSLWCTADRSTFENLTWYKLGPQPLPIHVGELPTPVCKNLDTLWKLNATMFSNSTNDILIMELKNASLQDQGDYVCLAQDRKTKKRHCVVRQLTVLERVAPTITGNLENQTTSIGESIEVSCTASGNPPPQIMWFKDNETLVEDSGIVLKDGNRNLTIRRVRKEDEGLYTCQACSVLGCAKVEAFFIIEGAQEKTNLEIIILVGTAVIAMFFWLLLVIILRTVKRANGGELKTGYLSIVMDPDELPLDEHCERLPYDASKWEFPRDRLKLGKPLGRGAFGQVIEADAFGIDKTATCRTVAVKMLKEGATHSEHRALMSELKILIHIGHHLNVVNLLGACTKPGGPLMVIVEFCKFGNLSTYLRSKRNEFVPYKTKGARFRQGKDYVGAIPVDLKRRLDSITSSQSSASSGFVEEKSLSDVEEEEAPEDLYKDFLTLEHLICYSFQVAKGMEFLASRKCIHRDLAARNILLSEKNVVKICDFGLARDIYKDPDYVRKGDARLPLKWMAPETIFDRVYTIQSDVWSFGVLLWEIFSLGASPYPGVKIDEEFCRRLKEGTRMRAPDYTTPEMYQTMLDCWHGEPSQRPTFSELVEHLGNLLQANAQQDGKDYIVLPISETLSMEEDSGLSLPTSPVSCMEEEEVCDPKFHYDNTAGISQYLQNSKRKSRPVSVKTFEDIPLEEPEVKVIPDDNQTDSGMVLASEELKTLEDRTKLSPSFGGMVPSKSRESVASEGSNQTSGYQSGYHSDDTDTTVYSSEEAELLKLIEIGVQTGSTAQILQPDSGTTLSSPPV
Sequence of Fyn (P06241 whole entry): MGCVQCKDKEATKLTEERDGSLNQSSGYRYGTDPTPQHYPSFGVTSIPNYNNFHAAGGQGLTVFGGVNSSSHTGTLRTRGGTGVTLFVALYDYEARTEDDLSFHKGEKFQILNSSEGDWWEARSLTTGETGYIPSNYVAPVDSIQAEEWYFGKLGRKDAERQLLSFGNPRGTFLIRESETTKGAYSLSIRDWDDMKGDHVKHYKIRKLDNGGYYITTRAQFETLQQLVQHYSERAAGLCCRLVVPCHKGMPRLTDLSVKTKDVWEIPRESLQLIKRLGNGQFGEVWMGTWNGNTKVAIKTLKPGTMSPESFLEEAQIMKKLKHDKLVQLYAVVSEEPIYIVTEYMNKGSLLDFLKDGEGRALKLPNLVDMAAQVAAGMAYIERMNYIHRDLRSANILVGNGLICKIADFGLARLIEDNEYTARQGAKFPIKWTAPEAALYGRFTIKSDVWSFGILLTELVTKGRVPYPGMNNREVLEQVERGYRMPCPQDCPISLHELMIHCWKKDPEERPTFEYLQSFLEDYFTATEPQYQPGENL
Sequence of IKKα (O15111 whole entry): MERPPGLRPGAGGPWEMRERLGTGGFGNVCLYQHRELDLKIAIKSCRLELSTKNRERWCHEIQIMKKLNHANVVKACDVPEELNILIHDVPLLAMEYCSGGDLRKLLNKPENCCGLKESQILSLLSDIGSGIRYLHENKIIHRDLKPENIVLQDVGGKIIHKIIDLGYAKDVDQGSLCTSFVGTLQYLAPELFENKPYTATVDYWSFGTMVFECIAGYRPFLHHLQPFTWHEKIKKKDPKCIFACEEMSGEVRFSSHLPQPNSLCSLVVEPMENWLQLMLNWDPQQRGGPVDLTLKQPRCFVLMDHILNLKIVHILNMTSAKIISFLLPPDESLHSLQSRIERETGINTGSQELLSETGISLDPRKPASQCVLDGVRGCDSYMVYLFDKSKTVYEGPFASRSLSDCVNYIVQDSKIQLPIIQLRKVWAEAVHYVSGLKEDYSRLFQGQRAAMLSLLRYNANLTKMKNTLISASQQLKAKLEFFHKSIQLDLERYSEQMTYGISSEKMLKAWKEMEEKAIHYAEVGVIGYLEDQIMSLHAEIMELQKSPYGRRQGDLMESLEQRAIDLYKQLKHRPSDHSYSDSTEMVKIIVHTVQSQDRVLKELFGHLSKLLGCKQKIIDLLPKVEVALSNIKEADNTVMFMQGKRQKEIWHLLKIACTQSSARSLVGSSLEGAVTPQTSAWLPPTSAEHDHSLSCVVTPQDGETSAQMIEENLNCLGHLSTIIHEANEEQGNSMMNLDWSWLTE
Sequence of EGFR (P00533 25-1210): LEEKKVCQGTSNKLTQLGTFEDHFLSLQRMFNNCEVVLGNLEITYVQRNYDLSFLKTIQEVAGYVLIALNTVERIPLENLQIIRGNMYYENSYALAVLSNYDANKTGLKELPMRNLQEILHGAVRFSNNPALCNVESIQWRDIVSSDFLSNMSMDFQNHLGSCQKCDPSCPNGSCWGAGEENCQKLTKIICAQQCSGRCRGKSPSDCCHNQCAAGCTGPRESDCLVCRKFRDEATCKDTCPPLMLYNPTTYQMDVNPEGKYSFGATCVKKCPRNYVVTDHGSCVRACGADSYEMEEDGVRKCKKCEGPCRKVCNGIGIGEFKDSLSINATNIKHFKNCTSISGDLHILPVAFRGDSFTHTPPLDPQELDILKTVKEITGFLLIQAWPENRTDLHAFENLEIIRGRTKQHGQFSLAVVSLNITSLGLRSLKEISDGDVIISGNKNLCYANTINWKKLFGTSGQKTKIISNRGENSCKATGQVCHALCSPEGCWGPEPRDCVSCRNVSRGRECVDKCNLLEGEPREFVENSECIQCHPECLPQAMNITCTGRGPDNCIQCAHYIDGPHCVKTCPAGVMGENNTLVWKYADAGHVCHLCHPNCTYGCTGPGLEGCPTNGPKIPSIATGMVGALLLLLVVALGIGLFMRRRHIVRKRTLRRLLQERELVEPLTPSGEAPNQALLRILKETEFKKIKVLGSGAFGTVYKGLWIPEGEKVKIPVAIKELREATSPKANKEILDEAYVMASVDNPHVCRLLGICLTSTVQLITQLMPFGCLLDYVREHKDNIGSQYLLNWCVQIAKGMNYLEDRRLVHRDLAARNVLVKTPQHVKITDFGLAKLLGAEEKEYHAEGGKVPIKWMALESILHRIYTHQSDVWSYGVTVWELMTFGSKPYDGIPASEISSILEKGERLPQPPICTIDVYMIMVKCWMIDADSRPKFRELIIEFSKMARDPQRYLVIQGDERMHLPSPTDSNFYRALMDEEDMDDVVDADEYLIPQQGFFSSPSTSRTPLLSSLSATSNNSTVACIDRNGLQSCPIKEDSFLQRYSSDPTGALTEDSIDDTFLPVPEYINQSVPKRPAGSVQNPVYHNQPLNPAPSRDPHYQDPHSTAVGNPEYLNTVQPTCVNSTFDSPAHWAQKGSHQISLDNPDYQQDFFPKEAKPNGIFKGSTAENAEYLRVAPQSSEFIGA
Sequence of Yes (P07947 whole entry): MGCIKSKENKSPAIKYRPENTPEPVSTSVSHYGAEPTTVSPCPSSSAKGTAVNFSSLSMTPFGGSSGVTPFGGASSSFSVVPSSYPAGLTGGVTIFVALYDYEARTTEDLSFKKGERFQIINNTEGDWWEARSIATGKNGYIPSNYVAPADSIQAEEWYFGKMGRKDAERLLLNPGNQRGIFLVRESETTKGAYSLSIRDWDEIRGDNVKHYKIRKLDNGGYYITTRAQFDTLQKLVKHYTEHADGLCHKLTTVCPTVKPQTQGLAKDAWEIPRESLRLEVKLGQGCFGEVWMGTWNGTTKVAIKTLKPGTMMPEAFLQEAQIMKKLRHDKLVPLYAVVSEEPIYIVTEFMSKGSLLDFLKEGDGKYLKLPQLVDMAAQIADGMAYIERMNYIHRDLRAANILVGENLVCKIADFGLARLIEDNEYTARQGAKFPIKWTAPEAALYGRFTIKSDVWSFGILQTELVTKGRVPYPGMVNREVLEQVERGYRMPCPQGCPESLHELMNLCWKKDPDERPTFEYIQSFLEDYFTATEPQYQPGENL
Sequence of c-RAF (P04049 whole entry): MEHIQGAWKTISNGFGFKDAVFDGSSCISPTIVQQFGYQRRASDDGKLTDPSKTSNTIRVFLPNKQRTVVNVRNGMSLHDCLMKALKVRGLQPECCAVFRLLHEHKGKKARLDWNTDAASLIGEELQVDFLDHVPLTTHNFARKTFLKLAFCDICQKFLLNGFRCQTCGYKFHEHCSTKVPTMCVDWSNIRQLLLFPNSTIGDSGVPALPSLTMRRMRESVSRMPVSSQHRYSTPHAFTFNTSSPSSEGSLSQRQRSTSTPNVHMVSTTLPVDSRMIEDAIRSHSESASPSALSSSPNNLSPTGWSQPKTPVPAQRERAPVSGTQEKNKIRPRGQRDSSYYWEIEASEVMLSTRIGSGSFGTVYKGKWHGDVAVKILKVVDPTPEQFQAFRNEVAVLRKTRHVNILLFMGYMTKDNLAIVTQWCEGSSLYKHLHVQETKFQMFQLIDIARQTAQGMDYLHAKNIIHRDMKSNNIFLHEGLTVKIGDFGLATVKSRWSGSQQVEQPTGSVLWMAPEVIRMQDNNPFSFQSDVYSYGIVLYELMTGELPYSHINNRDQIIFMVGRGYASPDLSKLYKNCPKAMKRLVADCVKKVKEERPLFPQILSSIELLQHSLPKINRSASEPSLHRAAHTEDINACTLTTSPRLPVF

CCn1nc(C#Cc2cc(C(=O)Nc3ccc(CN4CCN(C)CC4)c(C(F)(F)F)c3)ccc2C)c2c(N)ncnc21 [Compound 3]
remaining activity at 10 µM (c-RAF): 5%
remaining activity at 10 µM (Yes; Yes(h), compound at 10 μM, read-out: The percentage of the remaining active protein): 0%
IC50 (Yes; Yes, ATP at Km): < 1 nM
remaining activity at 10 µM (Fyn; Fyn(h), compound at 10 μM, read-out: The percentage of the remaining active protein): 0%
IC50 (Fyn; Fyn, ATP at Km): 5 nM
remaining activity at 10 µM (KDR; KDR(h), compound at 10 μM, read-out: The percentage of the remaining active protein): 2%
IC50 (KDR; KDR, ATP at Km): 17 nM
remaining activity at 10 µM (EphB2): 0%
remaining activity at 10 µM (ErbB2): 3%
IC50 (DDR1): 9 nM
IC50 (DDR2): 128 nM
remaining activity at 10 µM (IKKα; IKKα(h), compound at 10 μM, read-out: The percentage of the remaining active protein): 2%
IC50 (IKKα; IKKα, ATP at Km): 353 nM
remaining activity at 10 µM (EGFR; EGFR(h), compound at 10 μM, read-out: The percentage of the remaining active protein): 30%
IC50 (EGFR; EGFR, ATP at Km): 3520 nM
remaining activity at 10 µM (Tie2): 3%
remaining activity at 10 µM (CHK1(h)): 91%
remaining activity at 10 µM (Fer(h)): 23%
remaining activity at 10 µM (GSK3β(h)): 130%
remaining activity at 10 µM (Itk(h)): 5%
remaining activity at 10 µM (JNK1α1(h)): 66%
remaining activity at 10 µM (Met(h)): 24%
remaining activity at 10 µM (PAK1(h)): 57%
remaining activity at 10 µM (Pim-1(h)): 46%
remaining activity at 10 µM (PKBα(h)): 73%
remaining activity at 10 µM (PKBβ(h)): 52%
remaining activity at 10 µM (PKCα(h)): 101%
remaining activity at 10 µM (RIPK2(h)): 3%
remaining activity at 10 µM (TBK1(h)): 75%
remaining activity at 10 µM (Tec(h) activated): 4%
IC50 (A549): 199 nM
IC50 (MDA-MB-231; Homo sapiens, MDA-MB-231, 72 h, read-out: Proliferation inhibitory activity IC50): 11.3 nM
IC50 (MDA-MB-231; read-out: Proliferative inhibitory activity MDA-MB-231 (IC50 class)): < 100 nM
IC50 (BT474): > 10000 nM
IC50 (HT29): 166 nM
IC50 (A375): 20.9 nM
IC50 (c-Src(1-530)): < 1 nM
IC50 (EphA2): 16 nM
